Experimental data reported in paper PMC9145765, “Identification and Molecular Characterization of the Operon Required for L-Asparagine Utilization in Corynebacterium glutamicum” (Microorganisms, 2022).

Assays:
AnsR = biological target: T1, AnsR (Corynebacterium glutamicum, UniProt A0AB72VEC9); experiment: EMSA, release of promoter DNA from His-tagged AnsR; conditions: effector abolishing operator DNA binding; […] L-Asn preincubated […] min; pH […]; room temperature
T1 construct: gene cgR_2807; His-tagged (pColdI, plasmid pCRC667), E. coli BL21(DE3), Ni-NTA; annotated start codon is wrong, true start is the ATG 12 nt downstream
T1 sequence (A0AB72VEC9 5-238 limits assumed): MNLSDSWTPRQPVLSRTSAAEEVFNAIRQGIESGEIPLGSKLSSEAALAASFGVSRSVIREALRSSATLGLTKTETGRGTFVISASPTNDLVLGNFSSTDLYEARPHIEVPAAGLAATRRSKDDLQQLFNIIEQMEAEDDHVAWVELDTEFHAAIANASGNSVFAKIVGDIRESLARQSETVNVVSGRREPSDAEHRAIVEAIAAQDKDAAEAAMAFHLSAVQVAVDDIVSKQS

[1] = tested on: T2, AnsR (Corynebacterium glutamicum R (JCM 18229)), ORF:3b2fc73c; experiment: EMSA; conditions: 20 mM Tris-HCl pH 8.0, 100 mM NaCl, 3 mM MgCl2, 5 mM CaCl2, 0.1 mM EDTA, 0.1 mM DTT, 10% glycerol, 0.15 mg/mL BSA, room temperature, 25 min; 5% PAGE in 0.5x …
T2 sequence: T1 sequence (A0AB72VEC9 5-238 limits assumed)

Molecule	EMSA, release of promoter DNA from His-tagged AnsR (AnsR)	binding [1]
NC(=O)C[C@H](N)C(=O)O [L-Asn]	L-Asn inhibited the binding of AnsR to the site	–
GTTCATGGTGAACATCATGCATTGTGATGCACCTTACGTCAAGGACTTCTTGTTAAGTGATTCTCTTTGTGCAGGTTATGGCAATAAAAAGAACCTGCCCCGAAAAGGGAACAGGCTCTTTTTTCGGTAAGGGTTAAGCCAATGAAGCAAGTCCGAACATTGCGTAAGCCATGATGAAACCAACGATGGCAATACAGGTCTGGTTCACGGTCCAG (double strand) [probe -209 to +6]	–	no binding
